11 compounds from US20240174662A1, “SMALL MOLECULE INHIBITORS OF SALT INDUCIBLE KINASES” (Janssen Biotech, Inc., priority 2021, published 2024) can be followed below.

The target in the experiment is SIK2 (Homo sapiens (Human), UniProt Q9H0K1). As to the kind of experiment: SIK2 Enzymatic Assay Version 2 (High ATP). In kind it is biochemical. The settings on record: 3 mM ATP and 200 μM HDAC5tide final, ADP-Glo Max luminescence. In a few lines:
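Luminescent ADP-Glo Max read-out: depletion reagent 2 h, then detection reagent 1 h. Before the reaction, compounds were incubated 30 min with enzyme added at 6 nM (twice final concentration), with all steps at room temperature.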
A general note: In ADP-Glo the light output rises with the ADP produced.

The term IC50 denotes the concentration that inhibits the measured activity by half.

SIK2, sequence (Q9H0K1 whole entry, species assumed): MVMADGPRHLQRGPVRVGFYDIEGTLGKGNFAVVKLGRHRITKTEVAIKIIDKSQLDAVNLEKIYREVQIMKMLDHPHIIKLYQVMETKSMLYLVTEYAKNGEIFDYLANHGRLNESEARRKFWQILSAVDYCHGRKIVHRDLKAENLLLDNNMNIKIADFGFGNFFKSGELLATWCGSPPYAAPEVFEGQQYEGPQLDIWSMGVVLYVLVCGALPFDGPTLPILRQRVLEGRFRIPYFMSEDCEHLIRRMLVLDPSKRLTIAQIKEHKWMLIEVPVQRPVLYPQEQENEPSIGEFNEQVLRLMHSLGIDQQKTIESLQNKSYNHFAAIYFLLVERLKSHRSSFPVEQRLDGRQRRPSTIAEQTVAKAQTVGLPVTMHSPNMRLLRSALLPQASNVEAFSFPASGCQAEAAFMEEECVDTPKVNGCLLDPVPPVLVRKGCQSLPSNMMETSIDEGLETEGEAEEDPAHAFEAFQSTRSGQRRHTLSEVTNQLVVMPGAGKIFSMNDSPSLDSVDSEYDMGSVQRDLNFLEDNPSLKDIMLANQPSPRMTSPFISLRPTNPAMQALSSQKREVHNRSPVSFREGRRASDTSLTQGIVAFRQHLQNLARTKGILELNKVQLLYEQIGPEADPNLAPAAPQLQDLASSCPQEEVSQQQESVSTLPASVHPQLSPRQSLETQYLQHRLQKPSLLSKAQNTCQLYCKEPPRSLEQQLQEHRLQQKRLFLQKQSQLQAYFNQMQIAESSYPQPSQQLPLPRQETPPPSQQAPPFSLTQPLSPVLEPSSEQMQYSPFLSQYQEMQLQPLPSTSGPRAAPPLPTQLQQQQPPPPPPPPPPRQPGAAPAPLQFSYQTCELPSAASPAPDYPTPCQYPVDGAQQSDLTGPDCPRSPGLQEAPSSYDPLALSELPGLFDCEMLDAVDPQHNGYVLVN

In turn, `C[C@@H]1CNC[C@@H]1Oc1cnn(C)c1-c1ccn2nc(NC(=O)C3CC3)cc2c1` (single isomer, unassigned) [Example 238, (3*R, 4*R)—N-[5-[2-methyl-4-(4-methylpyrrolidin-3-yl)oxy-pyrazol-3-yl]pyrazolo[1,5-a]pyridin-2-yl]cyclopropanecarboxamide] came in with a 50% inhibitory concentration (IC50) of 0.0348 µM.

Compound `Cc1onc(O[C@@H]2CCNC[C@H]2F)c1-c1ccn2nc(NC(=O)C3CC3)cc2c1` (single isomer, unassigned) [Example 216, N-(5-(3-(((3*R,4*S)-3-fluoropiperidin-4-yl)oxy)-5-methylisoxazol-4-yl)pyrazolo[1,5-a]pyridin-2-yl)cyclopropanecarboxamide] yielded an IC50 of 0.0296 µM.

In the case of `Cc1cc(Nc2cc3cc(-c4c(O[C@@H]5CN[C@H](C)C5)noc4C)ccn3n2)nc(C)n1` [Example 90, N-(2,6-dimethylpyrimidin-4-yl)-5-[5-methyl-3-[(3S,5R)-5-methylpyrrolidin-3-yl]oxy-isoxazol-4-yl]pyrazolo[1,5-a]pyridin-2-amine], 0.0144 µM corresponded to half-maximal inhibition (IC50).

`Cc1cc(Nc2cc3cc(-c4c(CO[C@@H]5CN(C)C[C@H]5C)cnn4C)ccn3n2)nc(C)n1` (relative stereo) [Example 366, Trans-*S, *R—N-(2,6-dimethylpyrimidin-4-yl)-5-[4-[(1,4-dimethylpyrrolidin-3-yl)oxymethyl]-2-methyl-pyrazol-3-yl]pyrazolo[1,5-a]pyridin-2-amine] showed an IC50 of 0.0016 µM.

Turning to `CN1CC(C)(OCc2cnn(C)c2-c2ccn3nc(NC(=O)C4CC4)cc3c2)C1` [Example 192, N-[5-[4-[(1,3-dimethylazetidin-3-yl)oxymethyl]-2-methyl-pyrazol-3-yl]pyrazolo[1,5-a]pyridin-2-yl]cyclopropanecarboxamide], half-maximal inhibition (IC50) required 0.0196 µM.

On to `Cc1cc(Nc2cc3cc(-c4c(OC[C@H](O)C5(C)CC5)cnn4C)ccn3n2)nc(C)n1` (single isomer, unassigned) [Example 356, (1*R)-2-[5-[2-[(2,6-dimethylpyrimidin-4-yl)amino]pyrazolo[1,5-a]pyridin-5-yl]-1-methyl-pyrazol-4-yl]oxy-1-(1-methylcyclopropyl)ethanol], for which the half-inhibitory concentration (IC50) stood at 0.0591 µM.

`Cc1onc(OC2CN(C)C2)c1-c1ccn2nc(NC(=O)C3CC3)cc2c1` [Example 494, N-[5-[5-methyl-3-(1-methylazetidin-3-yl)oxy-isoxazol-4-yl]pyrazolo[1,5-a]pyridin-2-yl]cyclopropanecarboxamide] yielded an IC50 of 0.424 µM.

`C[C@H]1C[C@H](Oc2cnn(C)c2-c2ccn3nc(NC(=O)C4CC4)cc3c2)CN1` [Example 338, N-[5-[2-methyl-4-[(3S,5S)-5-methylpyrrolidin-3-yl]oxy-pyrazol-3-yl]pyrazolo[1,5-a]pyridin-2-yl]cyclopropanecarboxamide] returned a half-inhibitory concentration (IC50) of 0.053 µM.

Compound `CCN1CC[C@@H]1COc1cnn(C)c1-c1ccn2nc(Nc3cc(C)c(C)nn3)cc2c1` [Example 18, (R)—N-(5,6-Dimethylpyridazin-3-yl)-5-(4-((1-ethylazetidin-2-yl)methoxy)-1-methyl-1H-pyrazol-5-yl)pyrazolo[1,5-a]pyridin-2-amine] returned an IC50 of 0.001 µM.

`CN1CC2(CC2)C1COc1cnn(C)c1-c1ccn2nc(NC(=O)C3CC3)cc2c1` (racemic) [Example 51, (rac)-N-[5-[2-methyl-4-[(5-methyl-5-azaspiro[2.3]hexan-6-yl)methoxy]pyrazol-3-yl]pyrazolo[1,5-a]pyridin-2-yl]cyclopropanecarboxamide]: the half-maximal inhibitory concentration (IC50) was found to be 0.047 µM.

As to `Cc1onc(OC[C@](C)(c2ccccc2)N(C)C)c1-c1ccn2nc(NC(=O)C3CC3)cc2c1` [Example 226, N-[5-[3-[(2S)-2-(dimethylamino)-2-phenyl-propoxy]-5-methyl-isoxazol-4-yl]pyrazolo[1,5-a]pyridin-2-yl]cyclopropanecarboxamide], the 50% inhibitory concentration (IC50) was found to be 0.0128 µM.
